Measurements from ChEMBL document CHEMBL1201862, “PubChem BioAssay data set” (2004).
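Results reflect a 48-hour exposure of cells in 96-well plates to compound at five concentrations. GI50: concentration for 50% inhibition of growth.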 Calls of active or inactive are those of the source. Cut-off read from the data, not from the text of the source: active = GI50 up to about 1.1 µM and inactive = higher.

Assays:
Assay in all cases: NCI-60 cell line screen, 48 h
UO-31 = tested on: UO-31
RPMI-8226 = tested on: RPMI-8226
COLO 205 = tested on: COLO 205
A549 = tested on: A549
OVCAR-8 = tested on: OVCAR-8
SK-OV-3 = tested on: SK-OV-3
HCT-15 = tested on: HCT-15
HL-60 = tested on: HL-60
SW-620 = tested on: SW-620
SK-MEL-2 = tested on: SK-MEL-2
U-251 = tested on: U-251
NCI-H522 = tested on: NCI-H522
SK-MEL-5 = tested on: SK-MEL-5
UACC-62 = tested on: UACC-62

## O=C(O)C(CS)NCc1c2ccccc2nc2ccccc12 (stereo not given)
UO-31
  GI50: 18.5 µM (inactive)
RPMI-8226
  GI50: 22 µM (inactive)
COLO 205
  GI50: > 100 µM (inactive)
A549
  GI50: 91.6 µM (inactive)
OVCAR-8
  GI50: 32.6 µM (inactive)
SK-OV-3
  GI50: > 100 µM (inactive)
HCT-15
  GI50: 31.6 µM
HL-60
  GI50: 22.3 µM (inactive)
SW-620
  GI50: 37.4 µM (inactive)
SK-MEL-2
  GI50: 68.2 µM (inactive)
U-251
  GI50: 92 µM (inactive)
NCI-H522
  GI50: 25 µM (inactive)

## COc1ccccc1NC(=O)C1=C(C)NC(C)=C(C(=O)Nc2ccccc2OC)C1c1ccccc1OC
UO-31
  GI50: > 100 µM (inactive)
RPMI-8226
  GI50: 75.9 µM (inactive)
COLO 205
  GI50: 36.9 µM (inactive)
A549
  GI50: > 100 µM (inactive)
OVCAR-8
  GI50: > 100 µM (inactive)
SK-OV-3
  GI50: > 100 µM (inactive)
HCT-15
  GI50: > 100 µM
HL-60
  GI50: 75.2 µM (inactive)
SW-620
  GI50: > 100 µM (inactive)
SK-MEL-5
  GI50: > 100 µM (inactive)
SK-MEL-2
  GI50: > 100 µM (inactive)
UACC-62
  GI50: > 100 µM (inactive)
U-251
  GI50: > 100 µM (inactive)
NCI-H522
  GI50: > 100 µM (inactive)

## COC(=O)c1ccccc1NC(=O)C(=O)Cc1nc2c3c(ccc2nc1O)C(=O)c1ccccc1C3=O
UO-31
  GI50: 12.2 µM (inactive)
RPMI-8226
  GI50: 8.2 µM (inactive)
COLO 205
  GI50: 15.8 µM (inactive)
A549
  GI50: 14 µM (inactive)
OVCAR-8
  GI50: 24.3 µM (inactive)
SK-OV-3
  GI50: 10.1 µM (inactive)
HCT-15
  GI50: 21.9 µM
SW-620
  GI50: 5.56 µM (inactive)
SK-MEL-5
  GI50: 2.99 µM (inactive)
SK-MEL-2
  GI50: 15 µM (inactive)
UACC-62
  GI50: 4.48 µM (inactive)
U-251
  GI50: 17.1 µM (inactive)
NCI-H522
  GI50: 9.14 µM (inactive)

## O=[N+]([O-])c1nc(-c2ccccn2)[nH]c1[N+](=O)[O-]
UO-31
  GI50: 70.3 µM (inactive)
RPMI-8226
  GI50: > 100 µM (inactive)
COLO 205
  GI50: 45.5 µM (inactive)
A549
  GI50: 53.8 µM (inactive)
SK-OV-3
  GI50: > 100 µM (inactive)
HL-60
  GI50: 30.1 µM (inactive)
SW-620
  GI50: 66.2 µM (inactive)
SK-MEL-5
  GI50: 79.3 µM (inactive)
SK-MEL-2
  GI50: > 100 µM (inactive)
UACC-62
  GI50: 26.3 µM (inactive)
U-251
  GI50: 55.2 µM (inactive)
NCI-H522
  GI50: 18.6 µM (inactive)

## O=C(O)c1ccc(NC(=O)C2C(=O)C(=O)N(c3ccc(C(=O)O)cc3)C2=O)cc1 (stereo not given)
UO-31
  GI50: > 100 µM (inactive)
RPMI-8226
  GI50: > 100 µM (inactive)
COLO 205
  GI50: > 100 µM (inactive)
A549
  GI50: > 100 µM (inactive)
OVCAR-8
  GI50: > 100 µM (inactive)
SK-OV-3
  GI50: > 100 µM (inactive)
HCT-15
  GI50: > 100 µM
HL-60
  GI50: > 100 µM (inactive)
SW-620
  GI50: > 100 µM (inactive)
SK-MEL-2
  GI50: > 100 µM (inactive)
UACC-62
  GI50: > 100 µM (inactive)
U-251
  GI50: > 100 µM (inactive)
NCI-H522
  GI50: > 100 µM (inactive)

## CC(=O)C(CN(Cc1ccccc1)Cc1ccccc1)C(c1ccccc1)c1c(O)c2ccccc2oc1=O (stereo not given)
UO-31
  GI50: > 100 µM (inactive)
RPMI-8226
  GI50: > 100 µM (inactive)
A549
  GI50: > 100 µM (inactive)
OVCAR-8
  GI50: > 100 µM (inactive)
SK-OV-3
  GI50: > 100 µM (inactive)
HCT-15
  GI50: > 100 µM
HL-60
  GI50: > 100 µM (inactive)
SW-620
  GI50: 71.4 µM (inactive)
SK-MEL-5
  GI50: > 100 µM (inactive)
SK-MEL-2
  GI50: > 100 µM (inactive)
UACC-62
  GI50: > 100 µM (inactive)
U-251
  GI50: > 100 µM (inactive)
NCI-H522
  GI50: > 100 µM (inactive)

## O=C1c2ccccc2C(=O)c2[nH]c(Cc3ccccc3F)nc21
UO-31
  GI50: 52.5 µM (inactive)
RPMI-8226
  GI50: 57.4 µM (inactive)
COLO 205
  GI50: 33.7 µM (inactive)
A549
  GI50: 52.7 µM (inactive)
OVCAR-8
  GI50: 48.3 µM (inactive)
HCT-15
  GI50: 45.2 µM
HL-60
  GI50: 35.6 µM (inactive)
SW-620
  GI50: 37.9 µM (inactive)
SK-MEL-2
  GI50: 60.1 µM (inactive)
UACC-62
  GI50: 46.1 µM (inactive)
U-251
  GI50: 7.96 µM (inactive)
NCI-H522
  GI50: 21.3 µM (inactive)

## CCCO/N=[N+](\[O-])N(CC)CC
UO-31
  GI50: > 100 µM (inactive)
A549
  GI50: > 100 µM (inactive)
OVCAR-8
  GI50: > 100 µM (inactive)
SK-OV-3
  GI50: > 100 µM (inactive)
HCT-15
  GI50: > 100 µM
HL-60
  GI50: > 100 µM (inactive)
SW-620
  GI50: > 100 µM (inactive)
SK-MEL-5
  GI50: > 100 µM (inactive)
SK-MEL-2
  GI50: > 100 µM (inactive)
UACC-62
  GI50: > 100 µM (inactive)
U-251
  GI50: > 100 µM (inactive)
NCI-H522
  GI50: > 100 µM (inactive)

## [N-]=[N+]=Nc1c(Br)c(=O)[nH]c(=O)n1COCCO
UO-31
  GI50: > 100 µM (inactive)
COLO 205
  GI50: > 100 µM (inactive)
A549
  GI50: > 100 µM (inactive)
OVCAR-8
  GI50: > 100 µM (inactive)
HL-60
  GI50: > 100 µM (inactive)
SW-620
  GI50: > 100 µM (inactive)
SK-MEL-5
  GI50: > 100 µM (inactive)
UACC-62
  GI50: > 100 µM (inactive)
U-251
  GI50: > 100 µM (inactive)
NCI-H522
  GI50: 32.2 µM (inactive)

## Nc1nc(=O)[nH]c2c1cnn2COCCO
UO-31
  GI50: > 100 µM (inactive)
RPMI-8226
  GI50: > 100 µM (inactive)
COLO 205
  GI50: > 100 µM (inactive)
A549
  GI50: > 100 µM (inactive)
OVCAR-8
  GI50: > 100 µM (inactive)
HCT-15
  GI50: > 100 µM
HL-60
  GI50: > 100 µM (inactive)
SW-620
  GI50: > 100 µM (inactive)
SK-MEL-5
  GI50: > 100 µM (inactive)
SK-MEL-2
  GI50: > 100 µM (inactive)
U-251
  GI50: 22.4 µM (inactive)

## O=C(CC(=O)N1N=C(c2ccccc2)C(/N=N/c2ccc(Cl)cc2)C1=O)Nc1ccccc1Cl (stereo not given)
UO-31
  GI50: 22 µM (inactive)
RPMI-8226
  GI50: 27.6 µM (inactive)
COLO 205
  GI50: > 100 µM (inactive)
A549
  GI50: 13.2 µM (inactive)
SK-OV-3
  GI50: 18.8 µM (inactive)
HCT-15
  GI50: 51.2 µM
HL-60
  GI50: 26.6 µM (inactive)
SW-620
  GI50: 40.7 µM (inactive)
SK-MEL-5
  GI50: 18.1 µM (inactive)
SK-MEL-2
  GI50: 32.4 µM (inactive)
UACC-62
  GI50: 21.6 µM (inactive)
U-251
  GI50: 24.5 µM (inactive)
NCI-H522
  GI50: 30.3 µM (inactive)
